Experimental data as given in article PMC2778829, “Functional Characterization of the Canine Heme-Regulated eIF2α Kinase: Regulation of Protein Synthesis” (Advances in Hematology, 2009).

Assays:
Type in all cases: biochemical
[1] = molecular target: T1, human heme-regulated inhibitor (HRI), heme-regulated eIF2α kinase (Homo sapiens, UniProt Q9BQI3); test: in-vitro kinase assay (AlphaScreen) with purified HRI
T1 construct: gene EIF2AK1; expressed in Sf9 cells, purified by Ni-NTA

[2] = molecular target: T2, canine heme-regulated inhibitor (HRI), heme-regulated eIF2α kinase (Canis lupus, UniProt C4PB17); test: AlphaScreen kinase assay with purified HRI, biotinylated Poly-GT substrate, […] ATP
T2 construct: full-length HRI, His6-tagged, expressed in Sf9 cells

[3] = molecular target: T3, mouse heme-regulated inhibitor (HRI), heme-regulated eIF2α kinase (Mus musculus, UniProt Q9Z2R9); test: in-vitro kinase assay (AlphaScreen) with purified HRI
T3 construct: gene Eif2ak1; expressed in Sf9 cells, purified by Ni-NTA

Measured: IC50

T1 sequence (Q9BQI3 whole entry): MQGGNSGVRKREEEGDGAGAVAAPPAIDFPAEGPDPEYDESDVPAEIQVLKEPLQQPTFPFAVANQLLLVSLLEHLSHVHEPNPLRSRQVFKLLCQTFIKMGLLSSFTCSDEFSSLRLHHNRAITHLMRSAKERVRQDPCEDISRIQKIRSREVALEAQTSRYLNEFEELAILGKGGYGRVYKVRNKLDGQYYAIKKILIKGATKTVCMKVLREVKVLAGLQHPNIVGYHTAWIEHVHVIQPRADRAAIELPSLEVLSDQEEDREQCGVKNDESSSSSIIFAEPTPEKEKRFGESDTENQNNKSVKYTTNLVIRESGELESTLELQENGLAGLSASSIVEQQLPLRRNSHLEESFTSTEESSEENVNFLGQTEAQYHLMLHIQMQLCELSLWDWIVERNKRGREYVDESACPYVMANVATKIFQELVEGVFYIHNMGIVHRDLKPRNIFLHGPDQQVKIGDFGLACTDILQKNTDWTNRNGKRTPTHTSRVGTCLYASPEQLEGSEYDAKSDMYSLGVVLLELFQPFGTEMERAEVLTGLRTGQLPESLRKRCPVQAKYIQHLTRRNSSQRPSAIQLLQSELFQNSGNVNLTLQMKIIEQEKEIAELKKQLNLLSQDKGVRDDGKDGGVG
T2 sequence (C4PB17 1-630): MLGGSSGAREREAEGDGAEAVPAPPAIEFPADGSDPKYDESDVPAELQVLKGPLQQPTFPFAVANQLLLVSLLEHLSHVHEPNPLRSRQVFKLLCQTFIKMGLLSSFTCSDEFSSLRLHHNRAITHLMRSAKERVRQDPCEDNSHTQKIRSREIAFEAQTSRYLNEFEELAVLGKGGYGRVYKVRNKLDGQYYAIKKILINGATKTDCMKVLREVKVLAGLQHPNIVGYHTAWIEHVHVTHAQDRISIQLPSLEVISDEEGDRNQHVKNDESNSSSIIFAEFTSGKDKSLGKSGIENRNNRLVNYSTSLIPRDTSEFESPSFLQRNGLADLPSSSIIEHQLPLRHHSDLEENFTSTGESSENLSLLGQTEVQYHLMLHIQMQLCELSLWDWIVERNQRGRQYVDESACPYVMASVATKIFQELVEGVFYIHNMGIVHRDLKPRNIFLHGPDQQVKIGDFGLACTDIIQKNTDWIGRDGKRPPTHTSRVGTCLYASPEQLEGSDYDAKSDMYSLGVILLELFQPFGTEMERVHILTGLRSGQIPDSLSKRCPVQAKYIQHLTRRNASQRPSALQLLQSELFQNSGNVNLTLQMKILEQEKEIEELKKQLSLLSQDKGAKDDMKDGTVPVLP
T3 sequence (Q9Z2R9 whole entry): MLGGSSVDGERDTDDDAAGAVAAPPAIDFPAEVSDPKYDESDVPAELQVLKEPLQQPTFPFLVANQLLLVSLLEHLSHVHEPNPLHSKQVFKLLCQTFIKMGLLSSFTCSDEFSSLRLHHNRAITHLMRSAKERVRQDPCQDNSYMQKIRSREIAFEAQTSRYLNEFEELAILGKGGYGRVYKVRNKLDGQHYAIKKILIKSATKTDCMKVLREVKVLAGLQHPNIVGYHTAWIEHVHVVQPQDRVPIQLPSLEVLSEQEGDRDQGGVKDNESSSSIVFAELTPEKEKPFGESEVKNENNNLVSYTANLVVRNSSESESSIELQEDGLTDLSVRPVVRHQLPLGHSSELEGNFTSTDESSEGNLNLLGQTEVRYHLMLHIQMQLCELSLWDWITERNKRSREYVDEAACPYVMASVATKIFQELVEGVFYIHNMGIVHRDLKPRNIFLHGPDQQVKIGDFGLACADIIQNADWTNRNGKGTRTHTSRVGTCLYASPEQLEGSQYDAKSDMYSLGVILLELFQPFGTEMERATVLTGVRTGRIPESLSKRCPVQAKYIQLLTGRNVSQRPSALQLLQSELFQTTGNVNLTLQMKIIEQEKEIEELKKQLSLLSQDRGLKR

O=c1c(O)c(-c2ccc(O)c(O)c2)oc2cc(O)cc(O)c12 [quercetin, 3,3′,4′,5,7-pentahydroxyflavone]
~1000 nM: all assays above
